According to paper PMC9176662, “Design, synthesis, molecular modeling and biological evaluation of novel Benzoxazole-Benzamide conjugates via a 2-Thioacetamido linker as potential anti-proliferative agents, VEGFR-2 inhibitors and apoptotic inducers” (Journal of Enzyme Inhibition and Medicinal Chemistry, 2022):
Values joined by “and” are separate entries in the source; they are usually repeats but may differ in a detail not shown here. Equal entries are not always repeated.

What was measured:
WI-38 cells = assay: Cytotoxicity against normal fibroblasts, SRB assay, WI-38; type: cell-based; settings: normal human fibroblasts, 72 h, mean ± SD of three separate experiments
Description: (§1) Several of these derivatives were reported as acting as competitive inhibitors of different tyrosine kinases, with potent cytotoxic activity against various cell lines[58]^,[59]. […] Thus, in this study a novel series of benzoxazole-benzamide conjugates was initially evaluated for their potential anti-cancer activity against colon cancer cell line (HCT-116), breast cancer cell line (MCF-7) and normal human fibroblasts (WI-38), using the Sulforhodamine B colorimetric (SRB) assay.
(§2) 2.1. Anti-proliferative activity against HCT-116 and MCF-7 human cancer cells lines.
(§3) The sulforhodamine B (SRB) assays were performed according to Skehan et al..
(§4) Briefly, exponentially growing cells were trypsinized, counted and seeded at the appropriate densities (5000 cells/100 μL/ well) into 96-well microtiter plates. Cells were incubated in a humidified atmosphere at 37 °C for 24 h. Then, the cells were exposed to the tested compounds at the desired concentrations (0.01, 0.1, 1, 10, and 100 μM) or to 1% dimethyl sulfoxide (DMSO) for 72 h. At the end of the treatment period, the media were removed, and the cells were fixed with 10% trichloroacetic acid at 4 °C for 1 h. Following, the cells were washed with tap water four times and incubated with SRB 0.4% for 30 min. Excess dye was removed by washing repeatedly with 1% (vol/vol) acetic acid. The protein-bound dye was dissolved in 10 mM Tris base solution for (optical density) OD determination at 510 nm using a Spectra Max plus Microplate Reader (Molecular Devices, CA). Cell viability was expressed relative to the untreated control cells. […]

HCT-116 cells [1] = assay: Annexin V-FITC/PI apoptosis assay, HCT-116; type: cell-based, human; settings: for increase in total apoptosis compared to the control: HCT-116; for %Apoptosis %Early / %Apoptosis %Late / %Necrosis: HCT-116, 48 h incubation; for %Apoptosis %Early: control 1.1; for %Apoptosis %Late: control 1.57; for %Necrosis: control 1.85
Method: 2.4. Annexin V-FITC/PI apoptosis assay.
For this study, annexin V-FITC / PI apoptosis detection kit was used; HCT -116 and MCF-7 cells were stained with annexin V fluorescein isothiocyanate (FITC) and propidium iodide (PI) counter-stained.1 x 10^5 HCT-116 cells were 48 h incubated with compound 1 or 11, trypsinized, washed with phosphate-buffered saline (PBS), stained in the dark at 37 °C for 15 min utes.
Finally, the cells analyzed with a cytometer of FACS Caliber flow.

VEGFR-2 Protein Kinase = target: T1, VEGFR-2 Protein Kinase (Homo sapiens, UniProt P35968); assay: VEGFR-2 inhibitory activity (HTScan VEGF Receptor-2 Kinase Assay Kit, ELISA); type: biochemical; settings: mean of three individual experiments
T1 construct: It includes active VEGFR-2 kinase; purchased HTScan VEGF Receptor-2 Kinase Assay Kit
T1 sequence (P35968 20-1356): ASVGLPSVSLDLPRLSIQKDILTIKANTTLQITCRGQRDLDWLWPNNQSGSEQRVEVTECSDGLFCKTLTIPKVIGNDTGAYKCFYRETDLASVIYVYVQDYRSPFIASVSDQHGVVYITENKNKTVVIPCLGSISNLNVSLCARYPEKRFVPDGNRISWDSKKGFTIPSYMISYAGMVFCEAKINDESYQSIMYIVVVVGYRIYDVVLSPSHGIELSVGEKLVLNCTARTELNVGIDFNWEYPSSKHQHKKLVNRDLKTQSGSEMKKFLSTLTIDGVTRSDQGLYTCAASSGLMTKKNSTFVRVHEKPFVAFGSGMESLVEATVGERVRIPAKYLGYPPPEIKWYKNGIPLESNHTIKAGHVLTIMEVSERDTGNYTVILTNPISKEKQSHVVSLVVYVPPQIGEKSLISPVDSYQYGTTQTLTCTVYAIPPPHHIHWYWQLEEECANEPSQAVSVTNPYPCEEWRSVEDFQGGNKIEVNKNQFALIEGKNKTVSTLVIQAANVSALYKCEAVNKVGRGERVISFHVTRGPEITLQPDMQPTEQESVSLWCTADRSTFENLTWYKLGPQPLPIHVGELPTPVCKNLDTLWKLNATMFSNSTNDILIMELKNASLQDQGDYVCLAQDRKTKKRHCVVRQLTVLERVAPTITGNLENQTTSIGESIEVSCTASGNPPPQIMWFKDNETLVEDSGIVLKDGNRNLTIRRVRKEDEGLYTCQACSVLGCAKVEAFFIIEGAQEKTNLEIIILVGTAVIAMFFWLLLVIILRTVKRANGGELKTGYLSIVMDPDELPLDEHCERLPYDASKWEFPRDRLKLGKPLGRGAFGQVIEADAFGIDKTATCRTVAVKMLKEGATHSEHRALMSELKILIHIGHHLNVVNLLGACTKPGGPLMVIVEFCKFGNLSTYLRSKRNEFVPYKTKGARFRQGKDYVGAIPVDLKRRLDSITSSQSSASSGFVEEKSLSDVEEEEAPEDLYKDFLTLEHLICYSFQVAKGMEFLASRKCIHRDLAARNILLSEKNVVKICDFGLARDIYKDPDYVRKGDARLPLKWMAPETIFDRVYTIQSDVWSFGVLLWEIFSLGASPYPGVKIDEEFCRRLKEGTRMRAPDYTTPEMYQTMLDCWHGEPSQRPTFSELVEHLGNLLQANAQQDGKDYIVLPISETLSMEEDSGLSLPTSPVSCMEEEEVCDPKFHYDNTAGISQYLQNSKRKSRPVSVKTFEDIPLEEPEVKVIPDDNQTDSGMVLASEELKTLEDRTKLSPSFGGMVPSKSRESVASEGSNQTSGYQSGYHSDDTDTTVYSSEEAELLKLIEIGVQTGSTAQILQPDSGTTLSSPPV
Method: 2.2. VEGFR-2 Inhibitory activity
VEGFR-2 ELISA (Enzyme-Linked Immunosorbent Assay) kits (HTScan® VEGF Receptor-2 […]
phospho-tyrosine antibody) for detection of the phosphorylated form of the substrate peptide).
On a 96-well plate, a particular VEGFR-2 antibody was seeded and 100 μL of the normal solution or the tested compound tested was applied, incubated at room temperature for 2.5 h and washed. Then, 100 μL of the prepared biotin antibody was added, incubated for an additional 1 h at room temperature and washed. Following, 100 μL of streptavidin solution was added at room temperature, incubated for 45 minutes and then, 100 μL of TMB Substrate solution was applied and incubated at room temperature for 30 minutes. Finally, 50 μL stop solution was added and the absorption was measured at 450 nm instantly. The standard curve, the X -axis concentrations, and the Y-axis absorbance were drawn. […]

HCT-116 cells [2] = assay: Anti-proliferative activity, SRB assay, HCT-116; type: cell-based, human; settings: for IC50: SRB assay, 72 h exposure, mean ± SD of three separate experiments; for HCT-116 SI (selectivity index): ratio of IC50 for normal cells (WI-38) to IC50 for HCT-116
Description: as §1, §2, §3, §4

| SMILES | IC50 (WI-38 cells) | increase in total apoptosis compared to the control (HCT-116 cells [1]) | %Apoptosis %Early (HCT-116 cells [1]) | %Apoptosis %Late (HCT-116 cells [1]) | %Necrosis (HCT-116 cells [1]) | IC50 (VEGFR-2 Protein Kinase) | IC50 (HCT-116 cells [2]; Homo sapiens, HCT-116, 72 h) | IC50 (HCT-116 cells [2]) | HCT-116 SI (selectivity index) (HCT-116 cells [2]) |
| --- | --- | --- | --- | --- | --- | --- | --- | --- | --- |
| O=C(CSc1nc2ccccc2o1)Nc1ccc(C(=O)NC2CCCCC2)cc1 [Compound 1] | 41.9 ± 0.27 µM | approximately 3.4 fold | 4.86% | 8.95% | 1.55% | 0.27 µM and 0.268 µM | 7.2 ± 0.01 µM | 7.8 ± 0.015 µM | 5.3 |
| O=C(CSc1nc2cc(Cl)ccc2o1)Nc1ccc(C(=O)Nc2ccc(Cl)cc2)cc1 [Compound 11] | 103.5 ± 0.7 µM | ~3.9 fold | 6.01% | 9.62% | 1.78% | 0.36 µM and 0.361 µM | 12.2 ± 0.007 µM | – | 8.5 |
